Calls of active or inactive are those of the source. The rule behind the calls is not given here.
Legend:
MDA-MB-468 [1] = experiment: Cell cycle arrest in MDA-MB-468 cells by accumulation at G2/M phase at 4.0 uM after 24 hrs; assay type: functional, Homo sapiens
MDA-MB-468 [2] = experiment: Cell cycle arrest in MDA-MB-468 cells by accumulation at G2/M phase at 1.0 to 2.0 uM by flow cytometry; assay type: functional, cell-based; conditions: Homo sapiens
MDA-MB-468 [3] = experiment: Cell cycle arrest in MDA-MB-468 cells by accumulation at S phase at 8.0 uM after 24 hrs; assay type: functional, Homo sapiens
MDA-MB-468 [4] = experiment: Cell cycle arrest in MDA-MB-468 cells by accumulation at S phase at 0.5 uM after 24 hrs; assay type: functional, Homo sapiens
MDA-MB-468 [5] = experiment: Induction of apoptosis in MDA-MB-468 cells assessed as alteration in p53 localization; assay type: functional, cell-based; conditions: Homo sapiens
MDA-MB-468 [6] = experiment: Induction of apoptosis in MDA-MB-468 cells assessed as blebbing at 8.0 uM after 24 hrs by electron microscopy; assay type: functional, cell-based; conditions: Homo sapiens
MDA-MB-468 [7] = experiment: Cell cycle arrest in MDA-MB-468 cells by accumulation at S phase at 4.0 uM after 24 hrs; assay type: functional, Homo sapiens
MDA-MB-468 [8] = experiment: Cell cycle arrest in MDA-MB-468 cells by accumulation at G2/M phase at 0.5 uM after 24 hrs; assay type: functional, Homo sapiens
MDA-MB-468 [9] = experiment: Cell cycle arrest in MDA-MB-468 cells by accumulation at G2/M phase at 8.0 uM after 24 hrs; assay type: functional, Homo sapiens
MDA-MB-468 [10] = experiment: Induction of apoptosis in MDA-MB-468 cells assessed as DNA fragmentation after 24 hrs by TUNEL assay; assay type: functional, cell-based; conditions: Homo sapiens
MDA-MB-468 [11] = experiment: Induction of apoptosis in MDA-MB-468 cells assessed as apoptotic bodies at 8.0 uM after 24 hrs by electron microscopy; assay type: functional, cell-based; conditions: Homo sapiens
MDA-MB-468 [12] = experiment: Induction of apoptosis in MDA-MB-468 cells assessed as vacuolization at 8.0 uM after 24 hrs by electron microscopy; assay type: functional, cell-based; conditions: Homo sapiens
MDA-MB-468 [13] = experiment: Cell cycle arrest in MDA-MB-468 cells by accumulation at G0/G1 phase at 4.0 uM after 24 hrs; assay type: functional, Homo sapiens
MDA-MB-468 [14] = experiment: Cell cycle arrest in MDA-MB-468 cells by accumulation at G0/G1 phase at 0.5 uM after 24 hrs; assay type: functional, Homo sapiens
MDA-MB-468 [15] = experiment: Cell cycle arrest in MDA-MB-468 cells by accumulation at G0/G1 phase at 8.0 uM after 24 hrs; assay type: functional, Homo sapiens
MDA-MB-468 [16] = experiment: Inhibition of human ER negative MDA-MB-468 cells by MTT assay; assay type: functional, cell-based
MDA-MB-468 [17] = experiment: Induction of apoptosis in MDA-MB-468 cells assessed as nuclear condensation at 8.0 uM after 24 hrs by electron microscopy; assay type: functional, cell-based; conditions: Homo sapiens
MDA-MB-468 [18] = experiment: Induction of apoptosis in MDA-MB-468 cells assessed as p53 levels at 8.0 uM; assay type: functional, cell-based; conditions: Homo sapiens

For `c1ccc(Sc2nc(Sc3ccccn3)nc(Sc3ccccn3)n2)nc1`, the Activity (MDA-MB-468 [1]) was 40.5%, the Activity (MDA-MB-468 [2]) was “Active” and the Activity (MDA-MB-468 [3]) was 20.8%. For the same molecule, the Activity (MDA-MB-468 [4]) was 29.2%, the Activity (MDA-MB-468 [5]) was “Dose-dependent effect” and the Activity (MDA-MB-468 [6]) was “Active”. It also gave an Activity (MDA-MB-468 [7]) of 25.9%, an Activity (MDA-MB-468 [8]) of 21.8% and an Activity (MDA-MB-468 [9]) of 42.9%. For the same molecule, the Activity (MDA-MB-468 [10]) was “Dose-dependent effect”, the Activity (MDA-MB-468 [11]) was “Active” and the Activity (MDA-MB-468 [12]) was “Active”. For the same molecule, the Activity (MDA-MB-468 [13]) was 33.6%, the Activity (MDA-MB-468 [14]) was 49% and the Activity (MDA-MB-468 [15]) was 36.3%. The IC50 (MDA-MB-468 [16]) was 1600 nM, the Activity (MDA-MB-468 [17]) was “Active” and the Activity (MDA-MB-468 [18]) was “inactive”.
